Test results published in patent US8026278B2, “Inhibitors of pyruvate kinase as therapeutic agents for cancer” (priority 2005, dated 2011).

Key:
[1] = biological target: T1, Pyruvate kinase isolated from rabbit muscle (Oryctolagus cuniculus, UniProt P11974); assay: Inhibition of pyruvate kinase (indirect assay quantifying ADP production); assay type: biochemical
T1 construct: Pyruvate kinase isolated from rabbit muscle; purchased Sigma-Aldrich; host or cells: rabbit muscle (tissue-derived enzyme)
T1 sequence (P11974 whole entry): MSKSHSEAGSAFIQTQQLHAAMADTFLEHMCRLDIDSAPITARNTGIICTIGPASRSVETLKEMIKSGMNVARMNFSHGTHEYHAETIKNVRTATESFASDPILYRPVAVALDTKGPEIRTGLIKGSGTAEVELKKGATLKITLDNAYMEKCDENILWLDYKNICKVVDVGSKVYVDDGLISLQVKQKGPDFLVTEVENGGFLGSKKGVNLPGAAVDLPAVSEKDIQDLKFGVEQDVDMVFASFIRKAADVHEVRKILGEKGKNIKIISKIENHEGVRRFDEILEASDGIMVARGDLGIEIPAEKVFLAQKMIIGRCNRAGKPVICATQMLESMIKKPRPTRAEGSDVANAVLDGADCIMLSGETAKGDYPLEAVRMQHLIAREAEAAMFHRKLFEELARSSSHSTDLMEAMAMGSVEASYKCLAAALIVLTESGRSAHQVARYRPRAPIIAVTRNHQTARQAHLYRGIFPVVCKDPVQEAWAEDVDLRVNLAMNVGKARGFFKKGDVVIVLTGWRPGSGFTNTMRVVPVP
Description: The compounds E-3-chlorophosphoenolpyruvate ditriethyl-ammonium salt (ECPDAT), Z-3-chlorophosphoenolpyruvate tritriethyl-ammonium salt (CPTP), phosphoenol-3-bromo-pyruvic acid mono-cyclohexyl ammonium salt (PBPA), 2-bromooxoethylphosphonic acid mono-cyclohexyl-ammonium salt (BOEPA) and 3-bromopyruvic acid (BrPyA) were tested for their efficiency at inhibiting pyruvate kinase. Pyruvate kinase isolated from rabbit muscle was purchased from Sigma-Aldrich. Pyruvate kinase was assayed indirectly by quantifying ADP production formed in the reaction ATP+pyruvate to ADP+phosphoenolpyruvate. Inhibitors were added to the reaction mixture immediately before the reaction was started by the addition of ATP.

[2] = test system: MCF7 (breast) cancer cell line; assay: MTT assay, inhibition of cell proliferation, MCF7; assay type: cell-based; conditions: MCF7, 72 hours
Description: (§1) The compounds of the invention were tested for their inhibition potential of cell proliferation. MCF7 (breast) and SF268 (glioma) cancer cell lines were incubated with different concentrations of the compounds and their viability was assessed using an MTT (3-(4,5-dimethylthiazol-2-yl)-2,5-diphenyltetrazolium bromide) assay. The MTT assay is well known in the art (see for example Slater et al., Biochim. Biophys. Acta 77 (1963) 383). The cells were incubated with a given inhibitor for 72 hours and assayed.

[3] = test system: SF268 (glioma) cancer cell line; assay: MTT assay, inhibition of cell proliferation, SF268; assay type: cell-based; conditions: SF268, 72 hours
Description: as §1

O=C(O)C(=O)CBr [BrPyA, 3-bromopyruvic acid, reference compound]
inhibition at 100 µM ([1]; Concentration 0.1 mM): 0% | inhibition at 1000 µM ([1]; Concentration 1 mM): 0% | inhibition at 10000 µM ([1]; Concentration 10 mM): 10.9% | inhibition at 100000 µM ([1]; Concentration 100 mM): 57.8%

Z-3-chlorophosphoenolpyruvate tritriethyl-ammonium salt [CPTP]
Inhibition of pyruvate kinase compared with BrPyA [1]: inhibited pyruvate kinase at lower concentrations than BrPyA | % Inhibition ([1]; Concentration 0.1 μM): 0% | % Inhibition ([1]; Concentration 1 μM): 43.7% | % Inhibition ([1]; Concentration 10 μM): 48.4% | Inhibition of cell proliferation [2]: inhibited cell proliferation | % (A-Blank relative to control) ([2]; 10 uM): 98.7% | A-Blank (Average-Blank) O.D. at 570 nm ([2]; 10 uM): 0.7995 O.D. | Average O.D. reading at 570 nm ([2]; 10 uM): 0.8822 O.D. | % (A-Blank relative to control) ([2]; 25 uM): 98.796% | A-Blank (Average-Blank) O.D. at 570 nm ([2]; 25 uM): 0.8003 O.D. | Average O.D. reading at 570 nm ([2]; 25 uM): 0.883 O.D. | % (A-Blank relative to control) ([2]; 50 uM): 101.05% | A-Blank (Average-Blank) O.D. at 570 nm ([2]; 50 uM): 0.8185 O.D. | Average O.D. reading at 570 nm ([2]; 50 uM): 0.9013 O.D. | % (A-Blank relative to control) ([2]; 75 uM): 96.173% | A-Blank (Average-Blank) O.D. at 570 nm ([2]; 75 uM): 0.779 O.D. | Average O.D. reading at 570 nm ([2]; 75 uM): 0.8618 O.D. | % (A-Blank relative to control) ([2]; 100 uM): 96.358% | A-Blank (Average-Blank) O.D. at 570 nm ([2]; 100 uM): 0.7805 O.D. | Average O.D. reading at 570 nm ([2]; 100 uM): 0.8633 O.D. | % (A-Blank relative to control) ([2]; 200 uM): 88.241% | A-Blank (Average-Blank) O.D. at 570 nm ([2]; 200 uM): 0.7148 O.D. | Average O.D. reading at 570 nm ([2]; 200 uM): 0.7975 O.D. | % (A-Blank relative to control) ([2]; 300 uM): 81.4198% | A-Blank (Average-Blank) O.D. at 570 nm ([2]; 300 uM): 0.6595 O.D. | Average O.D. reading at 570 nm ([2]; 300 uM): 0.7422 O.D. | % (A-Blank relative to control) ([2]; 500 uM): 71.39% | A-Blank (Average-Blank) O.D. at 570 nm ([2]; 500 uM): 0.5783 O.D. | Average O.D. reading at 570 nm ([2]; 500 uM): 0.661 O.D. | Inhibition of cell proliferation [3]: inhibited cell proliferation | % (A-Blank relative to control) ([3]; 10 uM): 99.42% | A-Blank (Average-Blank) O.D. at 570 nm ([3]; 10 uM): 0.6887 O.D. | Average O.D. reading at 570 nm ([3]; 10 uM): 0.775 O.D. | % (A-Blank relative to control) ([3]; 25 uM): 99.892% | A-Blank (Average-Blank) O.D. at 570 nm ([3]; 25 uM): 0.692 O.D. | Average O.D. reading at 570 nm ([3]; 25 uM): 0.7783 O.D. | % (A-Blank relative to control) ([3]; 50 uM): 98.232% | A-Blank (Average-Blank) O.D. at 570 nm ([3]; 50 uM): 0.6805 O.D. | Average O.D. reading at 570 nm ([3]; 50 uM): 0.7668 O.D. | % (A-Blank relative to control) ([3]; 75 uM): 93.829% | A-Blank (Average-Blank) O.D. at 570 nm ([3]; 75 uM): 0.65 O.D. | Average O.D. reading at 570 nm ([3]; 75 uM): 0.7363 O.D. | % (A-Blank relative to control) ([3]; 100 uM): 96.752% | A-Blank (Average-Blank) O.D. at 570 nm ([3]; 100 uM): 0.6703 O.D. | Average O.D. reading at 570 nm ([3]; 100 uM): 0.7565 O.D. | % (A-Blank relative to control) ([3]; 200 uM): 75.893% | A-Blank (Average-Blank) O.D. at 570 nm ([3]; 200 uM): 0.5258 O.D. | Average O.D. reading at 570 nm ([3]; 200 uM): 0.612 O.D. | % (A-Blank relative to control) ([3]; 300 uM): 57.4883% | A-Blank (Average-Blank) O.D. at 570 nm ([3]; 300 uM): 0.3982 O.D. | Average O.D. reading at 570 nm ([3]; 300 uM): 0.4845 O.D. | % (A-Blank relative to control) ([3]; 500 uM): 36.8459% | A-Blank (Average-Blank) O.D. at 570 nm ([3]; 500 uM): 0.2552 O.D. | Average O.D. reading at 570 nm ([3]; 500 uM): 0.3415 O.D.
